Columns and labels:
Assay type in all cases: in vivo
male Sprague-Dawley rats [1] = experiment: Rat hindpaw withdrawal latency (HWL) to mechanical stimulation, Randall Selitto Test; settings: for % Changes of HWL to Mechanical Stimulation: 10 minutes after intrathecal injection
male Sprague-Dawley rats [2] = experiment: Rat hindpaw withdrawal latency (HWL) to thermal stimulation, hot-plate test; settings: for % Changes of HWL to Thermal Stimulation: 10 minutes after intrathecal injection
male Sprague-Dawley rats [3] = experiment: Development of tolerance to intrathecal analgesia in rat HWL tests (thermal and mechanical); settings: intrathecal every 12 hrs
Procedure: A polyethylene catheter (Intramedic PE 10) was permanently implanted intrathecally with the inner tip at L3 to L5 in each animal. Rats displaying movement disorders following placement of the catheter were not used in the study. Injection volume was 10 μL of drug solution followed by 10 μL of 0.9% saline to flush the catheter. Intrathecal injections were performed every 12 hrs (morning and night).
In the morphine only group, 8 μg morphine HCl was injected every 12 hrs until complete tolerance developed and in the nociceptin only group, 10 nmol nociceptin was injected every 12 hrs until complete tolerance developed. These doses were chosen from previous studies that determined an equianalgesic dosing for these two drugs. […]
Solutions for intrathecal injection were prepared with sterilized saline (0.9%). […] The hindpaw withdrawal latency (HWL) was measured for both thermal and mechanical stimulation. […] A wedge shaped probe with a loading rate of 30 g/second was applied to the dorsal surface of the manually handled hindpaw and the mechanical stimulation required to initiate the struggle response was assessed. […] The HWLs were measured 15 min after the second intrathecal injection on a daily basis. […]

[4] = day 1, drug alone, intrathecal, text summary of both hindpaws

CN1CC[C@]23c4c5ccc(O)c4O[C@H]2[C@@H](O)C=C[C@H]3[C@H]1C5 [Morphine, morphine]
HWL increase using mechanical stimulation (male Sprague-Dawley rats [1]; [4]): ~55% | % Changes of HWL to Mechanical Stimulation (male Sprague-Dawley rats [1]; day 1, left hindpaw): 53.99 ± 2.96% | % Changes of HWL to Mechanical Stimulation (male Sprague-Dawley rats [1]; day 1, right hindpaw): 56.04 ± 3.38% | % Changes of HWL to Mechanical Stimulation (male Sprague-Dawley rats [1]; day 2, left hindpaw): 47.69 ± 2.54% | % Changes of HWL to Mechanical Stimulation (male Sprague-Dawley rats [1]; day 2, right hindpaw): 46.74 ± 2.52% | % Changes of HWL to Mechanical Stimulation (male Sprague-Dawley rats [1]; day 3, left hindpaw): 33.85 ± 1.60% | % Changes of HWL to Mechanical Stimulation (male Sprague-Dawley rats [1]; day 3, right hindpaw): 33.44 ± 1.03% | % Changes of HWL to Mechanical Stimulation (male Sprague-Dawley rats [1]; day 4, left hindpaw): 31.37 ± 2.02% | % Changes of HWL to Mechanical Stimulation (male Sprague-Dawley rats [1]; day 4, right hindpaw): 28.84 ± 2.73% | % Changes of HWL to Mechanical Stimulation (male Sprague-Dawley rats [1]; day 5, left hindpaw): 15.30 ± 1.39% | % Changes of HWL to Mechanical Stimulation (male Sprague-Dawley rats [1]; day 5, right hindpaw): 16.54 ± 1.26% | % Changes of HWL to Mechanical Stimulation (male Sprague-Dawley rats [1]; day 6, left hindpaw): 3.26 ± 1.86% | % Changes of HWL to Mechanical Stimulation (male Sprague-Dawley rats [1]; day 6, right hindpaw): 2.72 ± 1.94% | HWL increase using thermal stimulation (male Sprague-Dawley rats [2]; [4]): approximately 67% | % Changes of HWL to Thermal Stimulation (male Sprague-Dawley rats [2]; day 1, left hindpaw): 66.26 ± 2.20% | % Changes of HWL to Thermal Stimulation (male Sprague-Dawley rats [2]; day 1, right hindpaw): 66.66 ± 1.51% | % Changes of HWL to Thermal Stimulation (male Sprague-Dawley rats [2]; day 2, left hindpaw): 61.25 ± 3.05% | % Changes of HWL to Thermal Stimulation (male Sprague-Dawley rats [2]; day 2, right hindpaw): 63.11 ± 0.64% | % Changes of HWL to Thermal Stimulation (male Sprague-Dawley rats [2]; day 3, left hindpaw): 51.66 ± 1.73% | % Changes of HWL to Thermal Stimulation (male Sprague-Dawley rats [2]; day 3, right hindpaw): 48.74 ± 2.40% | % Changes of HWL to Thermal Stimulation (male Sprague-Dawley rats [2]; day 4, left hindpaw): 43.63 ± 1.38% | % Changes of HWL to Thermal Stimulation (male Sprague-Dawley rats [2]; day 4, right hindpaw): 42.45 ± 1.70% | % Changes of HWL to Thermal Stimulation (male Sprague-Dawley rats [2]; day 5, left hindpaw): 23.85 ± 1.03% | % Changes of HWL to Thermal Stimulation (male Sprague-Dawley rats [2]; day 5, right hindpaw): 25.07 ± 2.07% | % Changes of HWL to Thermal Stimulation (male Sprague-Dawley rats [2]; day 6, left hindpaw): −1.30 ± 2.36% | % Changes of HWL to Thermal Stimulation (male Sprague-Dawley rats [2]; day 6, right hindpaw): 0.51 ± 1.61% | day by which complete (total) tolerance exists (male Sprague-Dawley rats [3]): 6 days
